Assay results taken from patent US20250223412A1, “BLOWING AGENT, FOAMING RESIN COMPOSITION, POLYURETHANE UREA RESIN FOAM, AND PRODUCTION METHOD FOR POLYURETHANE UREA FOAM” (MITSUBISHI GAS CHEMICAL COMPANY, INC., priority 2022, published 2025).

Assay: Maximum carbon dioxide (CO2) release temperature of amine compound (DSC after CO2 absorption from air)
Assay type: physicochemical
Conditions: amine compound with CO2 absorbed (air, 23° C., 50% RH, 24 hours); heating 10° C./minute, 23 to 250° C., nitrogen
Procedure: A carbon dioxide detector and a Petri dish were placed in an openable desiccator (inner dimension: 370 mm×260 mm×272 mm). Subsequently the amine compound (5 mmol) was added to the Petri dish in the desiccator and the door was immediately closed to leave the amine compound to stand in the desiccator in an air environment at 23° C. and 50% RH for 24 hours. The initial concentration of carbon dioxide was adjusted to about 400 ppm.
Then the amine compound was taken out of the desiccator to give an amine compound with carbon dioxide absorbed. The maximum carbon dioxide release temperature of the amine compound with carbon dioxide absorbed was measured by subjecting the amine compound to DSC as described below. First, differential scanning calorimetry of the amine compound was performed under conditions of a temperature range of 23 to 250° C., a heating rate of 10° C./minute and a nitrogen atmosphere using a differential thermogravimeter (product name DTG-60 made by Shimadzu Corporation). The temperature at which the amount of heat absorbed due to the desorption of carbon dioxide was the maximum was calculated from the DSC curve obtained, and the temperature was determined as the maximum carbon dioxide release temperature of the amine compound.

Structure (SMILES)	Maximum CO2 release temperature
NCC1CCCC(CN)C1 (stereo not shown) [1,3-BAC, 1,3-bis(aminomethyl)cyclohexane]	125.7 °C
NCCN [Ethylenediamine, ethylenediamine]	103.4 °C
CC1(C)CC(N)CC(C)(CN)C1 (stereo not shown) [IPDA, isophoronediamine]	114.4 °C
NCc1cccc(CN)c1 [MXDA, metaxylylenediamine]	135.5 °C
